Measurements: ChEMBL document CHEMBL3885881, “DrugMatrix”
“And” between values parts separate entries of the source, which are not always exact repeats. Equal entries are not always repeated.

Species: Rattus norvegicus
Assay type: toxicity, organism-based, Sprague-Dawley
Settings: in vivo, sc, 24 h, route mini-PUMP - SUBCUTANEOUS, vehicle 100 % SALINE; for ALANINE AMINOTRANSFERASE / ALBUMIN / ALKALINE PHOSPHATASE / ASPARTATE AMINOTRANSFERASE / BLOOD UREA NITROGEN / CARBON DIOXIDE / CHLORIDE / CHOLESTEROL / CREATINE PHOSPHOKINASE / CREATININE / GLUCOSE / LACTATE DEHYDROGENASE / PHOSPHORUS / POTASSIUM / SODIUM / TOTAL BILIRUBIN / TOTAL PROTEIN / URIC ACID / LIPASE: tissue Plasma
[1] = 0 mg/kg, vehicle control, tissue Blood, dose level Control, time 1 day
[2] = 0 mg/kg, vehicle control, dose level Control, time 1 day
[3] = 2 mg/kg, tissue Blood, dose level High, time 1 day
[4] = 2 mg/kg, dose level High, time 1 day
[5] = […], tissue Blood, dose 4.2 mg/Kg, dose level M1, time 1 day
[6] = […], dose 4.2 mg/Kg, dose level M1, time 1 day

Description: DrugMatrix - Regimen: Single

CC(C)NCC(O)c1ccc(O)c(O)c1 (stereo not drawn) [ISOPROTERENOL]
ABSOLUTE SEGMENTED NEUTROPHIL [1]: 1753.5 CELLS/uL | BASOPHIL [1]: 0.4% and 0% | EOSINOPHIL [1]: 0.3% and 0.17% | ERYTHROCYTE COUNT [1]: 6.25 x10E6/uL and 5.64 x10E6/uL | HEMATOCRIT [1]: 41.8% and 34.52% | HEMOGLOBIN [1]: 13.33 G/DL and 12.68 G/DL | LEUKOCYTE COUNT [1]: 11.55 x10E3/uL and 13 x10E3/uL | LYMPHOCYTE [1]: 72.6% and 84.5% | MEAN CORPUSCULAR HEMOGLOBIN [1]: 21.37 pg and 22.5 pg | MONOCYTE [1]: 2.4% and 1.83% | NEUTROPHIL [1]: 23.4% and 13.5% | NUCLEATED RED BLOOD CELLS [1]: 0.17 /100WBC | PLATELET COUNT [1]: 1265.33 x10E3/uL and 679.17 x10E3/uL | ALANINE AMINOTRANSFERASE [2]: 40.33 u/L and 42.67 u/L | ALBUMIN [2]: 3.63 G/DL and 3.77 G/DL | ALKALINE PHOSPHATASE [2]: 385.33 u/L and 291.17 u/L | ASPARTATE AMINOTRANSFERASE [2]: 79.33 u/L and 74.5 u/L | BLOOD UREA NITROGEN [2]: 13.33 mg/dL and 15.33 mg/dL | CARBON DIOXIDE [2]: 40.67 mmol/L and 30 mmol/L | CHLORIDE [2]: 103 MEQ/L and 100.83 MEQ/L | CHOLESTEROL [2]: 86.33 mg/dL and 65.33 mg/dL | CREATINE PHOSPHOKINASE [2]: 190.33 u/L | CREATININE [2]: 0.4 mg/dL and 0.15 mg/dL | GLUCOSE [2]: 165.67 mg/dL and 179.83 mg/dL | LACTATE DEHYDROGENASE [2]: 103.33 u/L and 162.67 u/L | PHOSPHORUS [2]: 11.7 mg/dL and 12.2 mg/dL | POTASSIUM [2]: 5.5 MEQ/L and 5.73 MEQ/L | SODIUM [2]: 145 MEQ/L and 144.7 MEQ/L | TOTAL BILIRUBIN [2]: 0.27 mg/dL and 0.15 mg/dL | TOTAL PROTEIN [2]: 5.87 G/DL | URIC ACID [2]: 1 mg/dL and 1.93 mg/dL | ABSOLUTE BASOPHIL [3]: 13.3 cells/µL | ABSOLUTE EOSINOPHIL [3]: 56.7 cells/µL | ABSOLUTE LYMPHOCYTE [3]: 4960 cells/µL | ABSOLUTE MONOCYTE [3]: 150 cells/µL | BASOPHIL [3]: 0.2% | EOSINOPHIL [3]: 0.83% | ERYTHROCYTE COUNT [3]: 5.65 x10E6/uL | HEMATOCRIT [3]: 36.77% | HEMOGLOBIN [3]: 11.77 G/DL | LEUKOCYTE COUNT [3]: 6.69 x10E3/uL | LYMPHOCYTE [3]: 74.03% | MEAN CORPUSCULAR HEMOGLOBIN [3]: 20.8 pg | MEAN CORPUSCULAR HEMOGLOBIN CONCENTRATION [3]: 31.97 G/DL | MEAN CORPUSCULAR VOLUME [3]: 65.1 fL | MONOCYTE [3]: 2.3% | NEUTROPHIL [3]: 22.1% | PLATELET COUNT [3]: 1167.67 x10E3/uL | ALANINE AMINOTRANSFERASE [4]: 33 u/L | ALBUMIN [4]: 3.6 G/DL | ALKALINE PHOSPHATASE [4]: 400 u/L | ASPARTATE AMINOTRANSFERASE [4]: 86.67 u/L | BLOOD UREA NITROGEN [4]: 14.67 mg/dL | CARBON DIOXIDE [4]: 33 mmol/L | CHLORIDE [4]: 106.67 MEQ/L | CHOLESTEROL [4]: 105 mg/dL | CREATINE PHOSPHOKINASE [4]: 281.33 u/L | CREATININE [4]: 0.6 mg/dL | GLUCOSE [4]: 99.33 mg/dL | LACTATE DEHYDROGENASE [4]: 93 u/L | LIPASE [4]: 24.67 u/L | PHOSPHORUS [4]: 11.33 mg/dL | POTASSIUM [4]: 5.6 MEQ/L | SODIUM [4]: 146 MEQ/L | TOTAL BILIRUBIN [4]: 0.2 mg/dL | TOTAL PROTEIN [4]: 5.87 G/DL | URIC ACID [4]: 0.93 mg/dL | ABSOLUTE EOSINOPHIL [5]: 59.67 CELLS/uL | ABSOLUTE LYMPHOCYTE [5]: 9880 CELLS/uL | ABSOLUTE MONOCYTE [5]: 232.33 CELLS/uL | ABSOLUTE SEGMENTED NEUTROPHIL [5]: 3561.33 CELLS/uL | BASOPHIL [5]: 0% | EOSINOPHIL [5]: 0.33% | ERYTHROCYTE COUNT [5]: 5.17 x10E6/uL | HEMATOCRIT [5]: 30.7% | HEMOGLOBIN [5]: 11.47 G/DL | LEUKOCYTE COUNT [5]: 13.73 x10E3/uL | LYMPHOCYTE [5]: 71.67% | MEAN CORPUSCULAR HEMOGLOBIN [5]: 22.2 pg | MEAN CORPUSCULAR HEMOGLOBIN CONCENTRATION [5]: 37.33 G/DL | MEAN CORPUSCULAR VOLUME [5]: 59.43 fL | MONOCYTE [5]: 1.67% | NEUTROPHIL [5]: 26.33% | NUCLEATED RED BLOOD CELLS [5]: 0 /100WBC | PLATELET COUNT [5]: 1159 x10E3/uL | ALANINE AMINOTRANSFERASE [6]: 55.33 u/L | ALBUMIN [6]: 3.73 G/DL | ALKALINE PHOSPHATASE [6]: 326.67 u/L | ASPARTATE AMINOTRANSFERASE [6]: 83 u/L | BLOOD UREA NITROGEN [6]: 14 mg/dL | CARBON DIOXIDE [6]: 28.67 mmol/L | CHLORIDE [6]: 100.67 MEQ/L | CHOLESTEROL [6]: 89.67 mg/dL | CREATININE [6]: 0.13 mg/dL | GLUCOSE [6]: 154 mg/dL | LACTATE DEHYDROGENASE [6]: 126.67 u/L | LIPASE [6]: 8.67 u/L | PHOSPHORUS [6]: 14.57 mg/dL | POTASSIUM [6]: 6.55 MEQ/L | SODIUM [6]: 144.37 MEQ/L | TOTAL BILIRUBIN [6]: 0.1 mg/dL | TOTAL PROTEIN [6]: 6.03 G/DL | URIC ACID [6]: 2.43 mg/dL
